Patent publication US5219841A, “Treatment of arrhythmia by administration of Ap4 A” (Fujirebio, Inc., priority 1989, dated 1993)
Entries after “also recorded” stand apart in the source; their conditions may differ.

Columns and labels:
[1] = Half lethal dose, Lichfield-Wilcoxon method; conditions: in vivo, iv, rat
Excerpt: Ap4 A is a novel type of nucleotide discovered in human platelets in a recent year and has the following chemical structure: [drawing 1] The active ingredient Ap4 A of the pharmaceutical composition according to the present invention is thus preferably in a form of a pharmaceutically acceptable salt thereof such as sodium salt, or it may be in a form of free acid thereof. Ap4 A can be produced by a conventional organic synthesis or by an enzymatic synthesis with, for example, leucyl tRNA synthetase derived from thermophilic Bacillus stearothermoohillus (Japanese Patent Application Laid-Open (KOKAI) No. 62-278992; U.S. Pat. NO. 4886749; EP-A-247819), using ATP as the starting material in either method. […] J. Physiol., 254, 828-832 (1988)].

guinea pig heart = experiment: Coronary vasodilative effect, Langendorff perfusion of isolated heart
Protocol: An experiment was performed by a modification of the method of Aronson and Serlick [Toxicol. Appl. Pharmac., 38, 479-488 (1976) and 39, 157-176 (1977); Biochem. Pharmac. 26, 2297-2305 (1977)]. The guinea pig heart removed was started perfusing at the origin of the aorta by the Langendorff perfusion method. Perfusion was carried out at 37° C. and 14 ml/min of flow rate with a peristalic pump (TAIYO TYPE 1500N; Japan) in Krebs-Henseleit solution (KH: NaCl, 118 mM; phosphate, 1.2 mM; NaHCO3, 25 mM; glucose, 10 mM; KCl, 4.7 mM; CaCl2, 2.5 mM; and MgSO4, 1.2 mM; pH 7.4; bubbling with 95% O2 - 5% CO2). After the initiation of the perfusion, an incision was made in the left auricle and a cannula was inserted into the left ventricle via the left atrium to measure the left ventricular pressure with a pressure transducer (Nihon Kohden Co.; Model TP-200T). The differential value of the left ventricular pressure (dp/dt) was measured with a cardiotachometer (Nihon Kohden Co.; Model AT-601G). The perfusion pressure was determined with a pressure transducer connected to the aortic cannula. Ap4 A was dissolved in KH at various concentrations and administered to the perfusion system in a single dose of 1-100 μg/0.1 ml/5 sec or by a continuous infusion of 1-100 μg/5ml/15 min.

rabbit mesenteric artery = conditions: Busse et al. 1988; cited from earlier work
guinea pig right atrium = experiment: Effect on heart rate of isolated guinea pig right atrium
Protocol: A guinea pig (b.w. 450 g) was stunned and was immediately removed its heart to excise the right atrium therefrom. The right atrium was then suspended in a Magnus tube (30 ml) filled with Krebs-Henseleit (KH) solution which was maintained at 31° C. constantly aerating with a mixture of 95% O2 --5% CO2 therein. After the KH solution was changed with the fresh one at 15-minutes intervals and the heart rate of the right atrium was stabilized in 60-90 minutes, Ap4 A or ATP which was prepared at different concentrations was added to the KH solution in a single dose to determine the change of heart rate. Drug concentrations of 10^-4, 10^-5, 10^-6 and 10^-7 M were employed in this experiment. The heart rate was determined with a cardiotachometer (Nihon Kohden Co.; Model AT601G; Japan) and an isometric converter (Nihon Kohden Co.; Model TB-651T), with a 1-g weight load.

[2] = test system: baby hamster kidney cells; conditions: Grummt 1978; cited from earlier work
[3] = test system: ADP-induced platelet aggregation; experiment: ADP-induced platelet aggregation in platelet-rich plasma; assay type: cell-based, rabbit; conditions: ADP 5 μM
Protocol: Blood was collected from the carotid artery of an unanesthetized rabbit into a syringe containing one volume of 3.8% sodium citrate per nine volumes of blood. The citrated blood was centrifuged at 1100 rpm for 15 minutes, and the supernatant was obtained as platelet-rich plasma (PRP). To 200 μl of PRP in an aggregometer, 10 μl of ATP or Ap4 A solution was added and the mixture was incubated at 37° C. for 10 minutes, followed by addition of 10 μl of 0.1 mM ADP solution (final concentration: 5μM) to induce and measure the aggregation of platelets. Results obtained for ATP are shown in FIG. 5A and those for Ap4 A in FIG. 5B.

[4] = test system: adrenaline-induced cardiac arrhythmia; experiment: Adrenaline-induced arrhythmia model; assay type: in vivo, guinea pig
Protocol: With a guinea pig (b.w. 450 g) placed under urethane anesthesia (1.1 g/kg), its femoral vein, jugular vein and carotid artery were cannulated. Ap4 A, ATP or propranolol was injected into the femoral vein and adrenaline into the jugular vein through each cannula, while the carotid artery was utilized for a blood pressure monitoring. Changes associated with the administration of the drug were monitored in the same manner as above (B), and ECG was recorded in accordance with the lead II.
Adrenaline-induced cardiac arrhythmia model was prepared by injecting adrenaline (10 μg/kg) into the jugular vein over 5 seconds. Each drug was administered by intravenous infusion over a period of 5 minutes at the following dose: ATP, 3 or 10 mg/kg; Ap4 A, 3 or 10 mg/kg; propranolol, 1 mg/kg. Adrenaline was administered in a single dose 4 minutes after administration of the drug tested. The grading of arrhythmia was assessed in terms of the incidence of extrasystole.

hepatocytes = conditions: Rapaport and Zamecnick 1976; cited from earlier work
[5] = test system: ouabain-induced cardiac arrhythmia; experiment: Ouabain-induced arrhythmia model; assay type: in vivo, guinea pig
Protocol: With a guinea pig (b.w. 450 g) placed under urethane anesthesia (1.1 g/kg), its femoral vein, jugular vein and carotid artery were cannulated. Ap4 A, ATP or disopyramide was injected into the femoral vein and ouabain into the jugular vein through each cannula, while the carotid artery was utilized for a blood pressure monitoring. Changes associated with the administration of the drug were assessed by monitoring electrocardiogram (ECG), blood pressure, mean blood pressure and heart rate (Nihon Kohden Co.; Models AB620G, AP601G and AT601G). ECG was recorded in accordance with the lead II.
Ouabain-induced cardiac arrhythmia model was prepared by continuous infusion of ouabain at a rate of 7 μg/kg/min via the jugular vein. Each drug was administered by intravenous infusion over a period of 5 minutes at the following dose: ATP, 10 or 30 mg/kg; Ap4 A, 30 mg/kg; and disopyramide, 5 mg/kg. The drug was administered simultaneously with the infusion of ouabain. The antiarrhythmic effect of the drug tested was assessed in terms of the total dose of ouabain given until onset of each of the following parameters: P-P interval prolongation, T-P overlapping, ventricular arrhythmia, ventricular fibrillation and cardiac arrest.

platelet aggregation = experiment: Platelet aggregation by the drug itself in absence of ADP; assay type: cell-based, rabbit
[6] = test system: adenosine diphosphate (ADP)-stimulated human platelet aggregation; conditions: Luthje and Ogiluie 1984; cited from earlier work
[7] = single dose 1-100 μg/0.1 ml/5 sec

SMILES: Nc1ncnc2c1ncn2[C@@H]1O[C@H](COP(=O)(O)OP(=O)(O)OP(=O)(O)OP(=O)(O)OC[C@H]2O[C@@H](n3cnc4c(N)ncnc43)[C@H](O)[C@@H]2O)[C@@H](O)[C@H]1O [Ap4 A, diadenosine 5',5'''-P^1,P^4 -tetraphosphate]
- LD50 [1]: 102 mg/kg
- perfusion pressure and left ventricular pressure (guinea pig heart; continuous infusion 1-100 μg/5ml/15 min): the perfusion pressure and the left ventricular pressure decreased depending on the dose of Ap4 A
- dose showing coronary vasodilative effect without affecting heart rate or left ventricular pressure (guinea pig heart; e.g.): 1 µg
- heart rate (guinea pig heart; [7]): marked decrease of heart rate
- left ventricular pressure (guinea pig heart; [7]): fell transiently after administration and subsequently it was elevated
- perfusion pressure (guinea pig heart; [7]): dose-dependent fall of perfusion pressure; also recorded: observed from the lowest dose of Ap4 A
- perfusion pressure (coronary vasodilative activity) (guinea pig heart; single or continuous dose): the perfusion pressure decreased depending on the dose
- vasodilative action (rabbit mesenteric artery): vasodilative action
- relative potency vs ATP (change of heart rate) (guinea pig right atrium; 10^-4 M): 2.1 -fold
- relative potency vs ATP (change of heart rate) (guinea pig right atrium; 10^-5 M): 1.5 -fold
- relative potency vs ATP (change of heart rate) (guinea pig right atrium; 10^-6 M): 1.5 -fold
- potency compared with ATP (percent change of heart rate) (guinea pig right atrium; in words): prone to be more potent than ATP; also recorded: tends to be greater than that of ATP
- change of heart rate (bradycardic effect) (guinea pig right atrium; single dose, 10^-7 to 10^-4 M, KH solution, 31° C.): reduced the heart rate with a dose-dependency; also recorded: decreased the atrial heart rate with a dose-dependency
- DNA synthesis [2]: enhancement of DNA synthesis
- inhibition of ADP-induced platelet aggregation ([3]; 3×10^-5 M to 3×10^-4 M, in words): markedly inhibited ADP-induced platelet aggregation with a dose-dependency; also recorded: inhibited by Ap4 A with a dose-dependency
- inhibition at 300 µM ([3]; Oryctolagus cuniculus, Platelet, 3×10^-4 M, rabbit PRP, 37° C., 10 min preincubation, vs control): 76%
- inhibition at 30 µM ([3]; Oryctolagus cuniculus, Platelet, 3×10^-5 M, rabbit PRP, 37° C., 10 min preincubation, vs control): 21%
- incidence of extrasystole ([4]; 10 mg/kg/5min i.v., adrenaline 10 μg/kg, control value 39%): 8.0%
- antiarrhythmic effect (reduction of incidence of extrasystole) ([4]; i.v. infusion over 5 min: ATP 3 or 10 mg/kg, Ap4 A 3 or 10 mg/kg, propranolol 1 mg/kg): reduced the incidence of extrasystole with a dose-dependency; also recorded: dose-dependent reduction of the incidence of extrasystole
- antiarrhythmic effect compared with ATP ([4]; i.v., incidence of extrasystole): somewhat inferior to that of ATP; also recorded: somewhat weaker than that of ATP
- growth of hepatocytes (hepatocytes): promotion of the growth of hepatocytes
- antiarrhythmic effect compared with ATP ([5]; 30 mg/kg i.v., same dose of ATP): practically the same as that of ATP, or slightly lower; also recorded: virtually comparable with or slightly inferior to that of ATP
- antiarrhythmic effect: onset of P-P interval prolongation, T-P overlapping, ventricular arrhythmia, ventricular fibrillation and cardiac arrest ([5]; i.v. infusion over 5 min: ATP 10 or 30 mg/kg, Ap4 A 30 mg/kg, disopyramide 5 mg/kg, ouabain 7 μg/kg/min): inhibited the onsets of such parameters as P-P interval prolongation, T-P overlapping, ventricular arrhythmia, ventricular fibrillation and cardiac arrest; also recorded: inhibited all these parameters
- platelet aggregation by the drug itself (platelet aggregation; 3×10^-5 M or more, absence of ADP): did not cause platelet aggregation at all
- platelet aggregation by the drug itself (platelet aggregation; even at 3×10^-4 M): no activity of platelet aggregation; also recorded: no effect of the platelet aggregation
- effect on ADP-stimulated human platelet aggregation [6]: inhibitory effect
